Assay results published in publication PMC12168975 (Drug Design, Development and Therapy, 2025).
Counter-ions that a name gives are not always drawn. Like-named read-outs stand apart in the source and are kept apart here.

Experiments:
[1] = cited from earlier work
[2] = Pharmacokinetic drug-drug interaction study of BBR, TOFA and FIGA in rats; assay type: in vivo, Sprague-Dawley rats
[3] = poor solubility and permeability; cited from earlier work
[4] = Stability of simulated plasma; assay type: physicochemical, rat; details: simulated plasma samples; freeze-thaw cycles, room temperature storage and autosampler storage; found to be stable
[5] = cited from earlier work; remark: listed apart in the source
[6] = FIGA combined with berberine hydrochloride compared to FIGA alone
[7] = FIGA co-administered with itraconazole
[8] = FIGA co-administered with rifampin
[9] = TOFA combined with BBR compared to TOFA alone

Row | effect of concomitant TOFA and FIGA on the pharmacokinetic parameters of BBR ([2]; BBR with vs without TOFA or FIGA) | relative errors (RE %) of stability assessment [4] | decrease in CL [2, 6] [fold] | decrease in Tmax [2, 6] [fold] | increase in AUC(0-t) [2, 6] [fold] | increase in Cmax [2, 6] [fold] | decrease in AUC(0-t) [2, 9] [fold] | increase in CL [2, 9] [fold] | increase in time to peak concentration [2, 9] [fold] | SMILES | oral bioavailability ([1]; ref 20) [%] | oral bioavailability ([1]; ref 35) | Biopharmaceutics Classification System class [3] | increase of Cmax [5, 7] [%] | increase of bioavailability [5, 7] [%] | reduction of Cmax [5, 8] [%] | reduction of bioavailability [5, 8] [%]
1 | no significant differences | less than 15.0% |  |  |  |  |  |  |  | COc1ccc2cc3[n+](cc2c1OC)CCc1cc2c(cc1-3)OCO2 [BBR, berberine hydrochloride] | 5 | lower than 5% | Class IV |  |  |  | 
2 |  | less than 15.0% | 1.64 | 2.09 | 1.67 | 2.26 |  |  |  | O=C(Nc1nc2cccc(-c3ccc(CN4CCS(=O)(=O)CC4)cc3)n2n1)C1CC1 [FIGA, Filgotinib] |  |  |  | 64 | 45 | 26 | 27
3 |  | less than 15.0% |  |  |  |  | 1.76 | 1.63 | 2.49 | C[C@@H]1CCN(C(=O)CC#N)C[C@@H]1N(C)c1ncnc2[nH]ccc12 [TOFA, Tofacitinib] |  |  |  |  |  |  | 
